In patent US10085953B2, “Skin cancer treatment” (Avexxin AS, priority 2014, dated 2018):
“Also recorded” adds a separate entry of the source.

Test system: EGF-induced AA release in HaCaT keratinocytes
Assay: [3H]-Arachidonic acid release assay in EGF-stimulated HaCaT keratinocytes
Assay type: cell-based, human
Details: EGF 100 ng/ml 1 h, dose-dependent, FIG. 2
Procedure: The spontaneously immortalized skin keratinocyte cell line HaCaT (kindly provided by Prof. N. Fusenig, Heidelberg, Deutsches Krebsforschungszentrum, Germany) was cultured in DMEM supplemented with 10% (v/v) FBS, 0.3 mg/ml glutamine, and 0.1 mg/ml gentamicin at 37° C. with 5% CO2 in a humidified atmosphere. For release assays, flow cytometry cell cycle analysis and in vitro cPLA2α activity assay, cells were grown in 48 well trays or in 6 well trays, respectively. Cells were cultivated until 2 days post-confluency; serum starved in DMEM/0.5% FBS overnight and processed at day 3 post-confluence to ensure differentiation. Experiments were performed in DMEM/0.5% FBS. Untreated cells without inducing agents were included for unstimulated control. […] Cells were lysed and 200 μg of total protein was analyzed for cPLA2α activity as described. […] Following washing three times with Tris-buffered saline containing […], immunoreactive proteins were detected by horseradish peroxidase-conjugated secondary antibody (1 hour at room temperature) and SuperSignal® West Femto Maximum Sensivity substrate. Blots were analyzed by the BioRad Image Lab software, and target protein band intensities were normalized to α-tubulin. […] After labelling, the cells were washed twice with phosphate-buffered saline (PBS) containing fatty acid free BSA (2 mg/ml) (fBSA) in order to remove unincorporated radioactivity. […]

CC/C=C\C/C=C\C/C=C\C/C=C\C/C=C\CCSCC(=O)C(F)(F)F [AVX002]
effect on EGF-induced AA-release: completely abrogated; also recorded: reduced AA-release to below basal release in a dose-dependent manner
